{
  "source": "patent US9974767B2",
  "about": "“Statins in the treatment of muscular dystrophies and myopathies” (University of Washington, priority 2014, dated 2018)",
  "key": {"WT mice [1]": {"tested_on": "WT mice", "assay": "Plasma CK activity in wild type mice", "assay_type": "in vivo, mouse", "details": "8 months treatment, vs untreated WT", "procedure": "The activity levels of the mice were measured by voluntary running wheel activity over 2 days. […] Therefore, since CK was measured after the running wheel activity, the dramatic reduction in CK levels in Simvastatin-treated mdx mice is not related to exercise levels. […] Therefore, statins cause a robust reduction in CK release from dystrophic muscle both in long-term treated mice starting from a young age (3 weeks to 8 months), and in old mice (12 months) over a 2 month period.\n(§1) DMD is a chronic, progressively degenerative disease and consequently potential treatments need to be effective over many years. […] The calculated dose given to the mice was between 5-10 mg/kg/day. This would equate to 20-40 mg/day for a 10 yea old DMD boy weighing 30 kg, based on mouse to human equivalence calculations, which is within the recommended dose range of statins for children.\nMale dystrophin-deficient (mdx) and wild type (WT) mice on the C57BL/10ScSn background were used for all experiments, which were approved by the Institutional Animal Care and Use Committee (IACUC) at the University of Washington.\nSimvastatin powder (TCI America) was formulated as a treatment in two ways; in the drinking water and in the food. […]\nPlasma CK was evaluated as a measure of whole body muscle damage. […]"}, "mdx mice [2]": {"tested_on": "mdx mice", "assay": "Voluntary running wheel activity over 2 days", "assay_type": "in vivo, mouse", "details": "P=0.13"}, "mdx mice [3]": {"tested_on": "mdx mice", "assay": "H&E histology of tibialis anterior (TA) muscle", "assay_type": "in vivo, mouse", "details": "mdx Sim vs mdx Con, 8 months treatment"}, "WT mice [4]": {"tested_on": "WT mice", "assay": "H&E histology of TA muscle, wild type mice", "assay_type": "in vivo, mouse", "details": "8 months, 5-10 mg/kg/day", "procedure": "The dose used (5-10 mg/kg/day) is equivalent to a low to moderate dose in humans.\nas §1\nMuscles were imbedded in O.C.T compound and frozen in isopentane cooled in liquid nitrogen. Cryosections (10 μm thick) were placed on a glass side. Sections were fixed with either ice-cold methanol or 2% paraformaldehyde for 5 to 10 min. Some sections were stained with Haemotoxylin and Eosin (H & E) using standard procedures. For immunofluorescence, sections were incubated in blocking buffer (0.8% BSA and 1% fish gelatin in PBS) for 45 min. […] For fluorescence quantification (CD68, fibronectin and myosin heavy chains), images were converted to grayscale in Image J and a threshold applied to calculate the area of fluorescence as a percent of the total area of the section. Fibers with central nuclei were expressed as a percent of total fibers with detectable nuclei (ie. both central and peripheral)."}, "[5]": {"tested_on": "immortalized mdx myoblast cell line", "assay": "Differentiation of immortalized mdx myoblasts into myotubes", "assay_type": "cell-based, mouse", "procedure": "However, the statin concentrations required to induce these deleterious effects in vitro are typically 1 μM or greater. These concentrations are considerably (100-1000 times) higher than those found in vivo in mice and humans. […] We then carried out an in vitro experiment using an immortalized mdx myoblast cell line.\nImmortomouse mdx myoblasts were grown on gelatin coated plates and until 70% confluence in DMEM supplemented with 10% HS, 20% FBS, 0.5% chicken embryo extract and 20 units/ml of γ-interferon. […] Myotubes were washed in PBS, fixed in ice-cold methanol for 10 min, and H&E stained. Images of myotubes were taken with a Nikon inverted microscope (W.M. Keck Center, University of Washington)."}, "LC3A/LC3B": {"tested_on": "LC3A/LC3B", "assay": "LC3A and LC3B expression in diaphragm (autophagy), Western blot", "assay_type": "in vivo, mouse", "details": "old mdx Sim vs mdx Con", "excerpt": "Autophagy is an important cellular pathway for degrading damaged proteins, organelles and protein aggregates, which are then recycled by the cell for energy use. Impaired autophagy can trigger cell death and in skeletal muscle, proper regulation of autophagy is essential for normal cellular and physiological function. Both mdx and DMD muscles show evidence of reduced autophagy and treatment of mdx mice with a low protein diet triggered autophagy, which reduced inflammation and fibrosis and enhanced muscle function. […] A key protein marker of autophagic flux is the microtubule-associated protein 1A/1B light chain 3, which has a cytosolic form (LC3A) and a lapidated form (LC3B). An increased level of LC3B relative to LC3A is indicative of enhanced autophagic flux.\nTibialis anterior (TA) muscle function was measured in situ. Mice were anaesthetized with an intraperitoneal injection of Avertin (625 mg/kg) and placed on a heated metal platform (37° C.). The distal TA tendon was dissected free and sutured to the lever arm of the force and length control system (305C-LR, Aurora Scientific). […] Fatigue recovery was measured every 2 min up to 10 min post-fatigue. […] Membranes were incubated with enhanced chemiluminescence (ECL) reagent (Amersham) and bands were detected by the FluorChem M, imaging system (Protein Simple)."}},
  "note": "“Also recorded” adds a separate entry of the source.",
  "data": [
    {"smiles": "CCC(C)(C)C(=O)O[C@H]1C[C@@H](C)C=C2C=C[C@H](C)[C@H](CC[C@@H]3C[C@@H](O)CC(=O)O3)[C@H]21", "note": "[Simvastatin, simvastatin]", "values": [
      {"measurement": "CK levels of WT mice", "setting": "WT mice [1]", "result": "no difference; also recorded: no effect"},
      {"measurement": "CK levels of WT mice", "setting": "WT mice [1]; listed as simvastatin", "result": "no effect"},
      {"measurement": "voluntary running wheel activity, more than control mdx mice", "setting": "mdx mice [2]", "result": 20, "unit": "%"},
      {"measurement": "number of centrally nucleated (regenerated) muscle fibers", "setting": "mdx mice [3]", "result": "comparable number"},
      {"measurement": "muscle histology of WT mice (damage, inflammation)", "setting": "WT mice [4]", "result": "no effect; also recorded: no evidence of muscle damage or inflammation"},
      {"measurement": "muscle histology of WT mice (damage, inflammation)", "setting": "WT mice [4]; listed as simvastatin", "result": "no effect"},
      {"measurement": "muscle differentiation, myotube formation", "setting": "[5]; 50 to 500 nM, 3 days", "result": "appeared similar to untreated cells"},
      {"measurement": "doses at which simvastatin became more toxic, number of viable cells decreased", "setting": "[5]; 3 days of treatment", "result": "≥ 1", "unit": "µM"},
      {"measurement": "increase of LC3B", "setting": "LC3A/LC3B", "result": 40, "unit": "%"}
    ]}
  ]
}
